ChEMBL document CHEMBL1201862, “PubChem BioAssay data set” (2004)
Calls of active or inactive are those of the source.

Legend:
[1] = mRNA 3' processing disruption, beta-gal signal increase – luminescence, S. cerevisiae SKY197-pL101, dose response (AID 2525); format: functional, cell-based
[2] = system: HEK293; assay: cells; conditions: Homo sapiens;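 also: cells exposed to compound for 14 hours overnight before viability readout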
[3] = target: Tumor necrosis factor (Homo sapiens, UniProt P01375); assay: analog potency on TNFa NF-kB signaling – cell-based, revised, SAR follow-up (AID 2337); format: functional
Chain of Tumor necrosis factor (P01375 whole entry): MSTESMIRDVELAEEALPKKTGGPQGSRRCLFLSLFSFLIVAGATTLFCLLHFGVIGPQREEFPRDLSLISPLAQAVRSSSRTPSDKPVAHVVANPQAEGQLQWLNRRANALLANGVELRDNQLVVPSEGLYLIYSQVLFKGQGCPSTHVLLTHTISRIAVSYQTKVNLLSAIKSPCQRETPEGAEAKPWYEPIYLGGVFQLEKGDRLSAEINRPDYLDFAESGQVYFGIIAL

[4] = target: T1, Interleukin-8 (Homo sapiens, UniProt P10145); assay: SAR analysis of tumor necrosis factor alpha (TNF-alpha) induced IL-8 secretion in MCF-7/NOD1 cells. [Related pubchem assays (depositor defined):AID1575, AID2250, AID2260]; format: functional, cell-based
T1 sequence (P10145 whole entry): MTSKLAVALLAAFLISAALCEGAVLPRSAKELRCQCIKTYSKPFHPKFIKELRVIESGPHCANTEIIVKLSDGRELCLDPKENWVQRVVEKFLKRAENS

[5] = target: T2, Eukaryotic translation initiation factor 2-alpha kinase 3 (Homo sapiens, UniProt Q9NZJ5); assay: Counterscreen assay for PERK inhibitors: Dose response cell-based high throughput screening assay to measure inhibition of PERK at 6 hours. [Related pubchem assays: 1522, 1416 ]; format: functional
T2 sequence (Q9NZJ5 whole entry): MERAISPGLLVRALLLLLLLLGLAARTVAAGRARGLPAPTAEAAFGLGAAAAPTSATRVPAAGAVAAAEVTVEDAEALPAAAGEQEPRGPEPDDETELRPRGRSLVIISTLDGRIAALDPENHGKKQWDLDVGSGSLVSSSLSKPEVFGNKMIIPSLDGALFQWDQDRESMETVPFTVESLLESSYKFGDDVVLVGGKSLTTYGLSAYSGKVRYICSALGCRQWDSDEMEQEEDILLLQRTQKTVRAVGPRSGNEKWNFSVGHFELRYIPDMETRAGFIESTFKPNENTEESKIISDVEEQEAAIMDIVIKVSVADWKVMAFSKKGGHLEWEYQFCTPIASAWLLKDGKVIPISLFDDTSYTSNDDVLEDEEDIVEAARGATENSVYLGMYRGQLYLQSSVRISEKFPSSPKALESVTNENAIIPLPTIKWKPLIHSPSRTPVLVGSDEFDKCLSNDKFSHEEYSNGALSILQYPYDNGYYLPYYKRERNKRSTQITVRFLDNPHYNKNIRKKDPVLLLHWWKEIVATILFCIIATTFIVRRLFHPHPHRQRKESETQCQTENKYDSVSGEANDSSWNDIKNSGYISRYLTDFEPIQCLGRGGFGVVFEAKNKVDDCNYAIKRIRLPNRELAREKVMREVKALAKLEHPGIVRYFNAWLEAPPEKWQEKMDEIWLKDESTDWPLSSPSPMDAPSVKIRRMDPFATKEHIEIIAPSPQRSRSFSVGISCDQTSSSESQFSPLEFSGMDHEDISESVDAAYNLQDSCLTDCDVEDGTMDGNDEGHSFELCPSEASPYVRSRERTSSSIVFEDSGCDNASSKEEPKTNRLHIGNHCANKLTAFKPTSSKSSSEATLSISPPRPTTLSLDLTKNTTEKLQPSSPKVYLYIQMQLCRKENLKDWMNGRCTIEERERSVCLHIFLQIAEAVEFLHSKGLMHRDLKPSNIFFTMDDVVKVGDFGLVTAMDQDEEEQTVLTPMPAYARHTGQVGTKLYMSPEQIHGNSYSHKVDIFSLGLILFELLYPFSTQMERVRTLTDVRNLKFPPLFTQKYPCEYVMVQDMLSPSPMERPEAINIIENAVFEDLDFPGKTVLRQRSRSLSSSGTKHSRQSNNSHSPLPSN

[6] = target: T2, Eukaryotic translation initiation factor 2-alpha kinase 3; assay: Dose response cell-based high-throughput screening assay to measure PERK inhibition. [Related pubchem assays: 1416 ]; format: functional
[7] = microbe, parasite or virus in culture; format: functional; conditions: Mycobacterium tuberculosis
[8] = target: Heat shock protein HSP 90-alpha (Homo sapiens, UniProt P07900); format: functional, organism-based
[9] = Cytotoxicity screening for potential Inhibitors of Bacterial Capsule Biogenesis. [Related pubchem assays (depositor defined):AID488970]; format: functional
[10] = system: Staphylococcus aureus; assay: Inhibitors of Bacterial Quorum Sensing Structure Activity Relationship (SAR) Analysis: Dose Response Assay. [Related pubchem assays: 700, 527 ]; format: functional, organism-based
[11] = target: Signal transducer and activator of transcription 3 (Homo sapiens, UniProt P40763); assay: STAT3 activation with BCL3 mRNA and toxicity – cell-based, […], BCL3 qPCR, cytotoxicity, late-stage follow-up, panel member STAT3 Activation (AID 2049)
Chain of Signal transducer and activator of transcription 3 (P40763 whole entry): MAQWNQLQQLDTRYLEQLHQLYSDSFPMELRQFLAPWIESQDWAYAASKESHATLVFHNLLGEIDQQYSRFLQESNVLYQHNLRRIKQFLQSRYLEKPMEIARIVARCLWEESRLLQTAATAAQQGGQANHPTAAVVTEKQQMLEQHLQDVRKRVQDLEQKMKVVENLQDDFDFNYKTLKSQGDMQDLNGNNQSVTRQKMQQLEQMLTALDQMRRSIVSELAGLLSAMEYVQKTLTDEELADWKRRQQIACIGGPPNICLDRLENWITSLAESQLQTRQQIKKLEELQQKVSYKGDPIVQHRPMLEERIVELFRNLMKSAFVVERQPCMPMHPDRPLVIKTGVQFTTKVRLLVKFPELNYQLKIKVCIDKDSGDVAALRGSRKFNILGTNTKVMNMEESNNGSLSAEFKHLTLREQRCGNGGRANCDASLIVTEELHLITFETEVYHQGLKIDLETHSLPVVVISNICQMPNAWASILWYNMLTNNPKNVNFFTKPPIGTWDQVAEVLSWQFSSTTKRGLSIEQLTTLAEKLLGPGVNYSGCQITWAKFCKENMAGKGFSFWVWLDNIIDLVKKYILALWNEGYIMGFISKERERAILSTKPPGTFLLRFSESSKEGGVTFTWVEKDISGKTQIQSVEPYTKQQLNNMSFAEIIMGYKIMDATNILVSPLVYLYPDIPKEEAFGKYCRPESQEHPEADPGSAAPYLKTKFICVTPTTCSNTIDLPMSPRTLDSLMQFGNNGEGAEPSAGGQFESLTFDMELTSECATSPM

[12] = target: G2/mitotic-specific cyclin-B1 (Homo sapiens, UniProt P14635); assay: HeLa cell cycle G2/M accumulation – FACS, mechanism study for Wee1 degradation inhibitor project, late-stage follow-up, panel member Cyclin B Degradation (AID 2088)
Chain of G2/mitotic-specific cyclin-B1 (P14635 whole entry): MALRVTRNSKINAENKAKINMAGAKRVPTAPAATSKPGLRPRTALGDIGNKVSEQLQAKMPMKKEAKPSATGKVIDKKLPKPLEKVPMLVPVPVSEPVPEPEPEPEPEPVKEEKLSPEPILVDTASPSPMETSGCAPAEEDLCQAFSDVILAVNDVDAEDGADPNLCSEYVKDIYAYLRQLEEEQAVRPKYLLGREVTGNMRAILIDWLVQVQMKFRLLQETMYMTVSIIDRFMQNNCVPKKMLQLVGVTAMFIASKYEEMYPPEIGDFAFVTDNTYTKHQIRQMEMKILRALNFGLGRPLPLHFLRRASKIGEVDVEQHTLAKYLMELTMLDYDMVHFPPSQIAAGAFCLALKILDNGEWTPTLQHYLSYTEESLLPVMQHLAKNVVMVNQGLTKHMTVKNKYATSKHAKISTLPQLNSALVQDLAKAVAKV

[13] = target: Wee1-like protein kinase (Homo sapiens, UniProt P30291); assay: HeLa cell cycle G2/M accumulation – FACS, mechanism study for Wee1 degradation inhibitor project, late-stage follow-up, panel member Wee1 Degradation (AID 2088)
Chain of Wee1-like protein kinase (P30291 whole entry): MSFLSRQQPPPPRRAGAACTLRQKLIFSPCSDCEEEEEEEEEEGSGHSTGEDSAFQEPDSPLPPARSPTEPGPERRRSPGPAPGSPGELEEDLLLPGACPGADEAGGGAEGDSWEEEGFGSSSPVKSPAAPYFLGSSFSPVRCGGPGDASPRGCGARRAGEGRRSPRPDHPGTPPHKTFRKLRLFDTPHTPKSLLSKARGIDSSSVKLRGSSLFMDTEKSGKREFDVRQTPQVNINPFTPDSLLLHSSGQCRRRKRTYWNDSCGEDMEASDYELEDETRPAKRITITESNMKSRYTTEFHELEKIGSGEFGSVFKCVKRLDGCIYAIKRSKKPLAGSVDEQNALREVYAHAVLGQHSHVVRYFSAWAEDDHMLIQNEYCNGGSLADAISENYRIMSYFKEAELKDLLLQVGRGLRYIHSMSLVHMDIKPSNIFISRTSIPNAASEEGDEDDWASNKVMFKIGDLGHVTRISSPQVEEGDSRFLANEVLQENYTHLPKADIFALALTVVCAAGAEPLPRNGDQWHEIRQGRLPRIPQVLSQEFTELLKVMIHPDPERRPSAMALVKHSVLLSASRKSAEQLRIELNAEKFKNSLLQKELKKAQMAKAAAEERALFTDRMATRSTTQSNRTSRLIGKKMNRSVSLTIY

[14] = viability of PTEN-deleted HCT116 cells – cell-based, HCT116 PTEN knockout, dose response (AID 1047); format: functional;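 also: HCT116 colon tumor cells with PTEN knocked out; cells exposed to compound for 60 hours before readout; potency for loss of cell viability measured by luminescence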
[15] = target: Protein Rev (Human immunodeficiency virus type 1 group M subtype B (isolate HXB2)(HIV-1), UniProt P04618); assay: blockers of HIV Rev/RRE RNA complex – biochemical, fluorescence polarization, HIV-1, dose response (AID 434976); design: species or system Human immunodeficiency virus 1
Chain of Protein Rev (P04618 whole entry): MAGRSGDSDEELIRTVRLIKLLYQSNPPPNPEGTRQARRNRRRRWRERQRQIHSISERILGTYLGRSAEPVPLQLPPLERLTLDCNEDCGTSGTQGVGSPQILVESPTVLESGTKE

[16] = target: T3, Ubiquitin-conjugating enzyme E2 N (Homo sapiens, UniProt P61088); format: functional
T3 sequence (P61088 whole entry): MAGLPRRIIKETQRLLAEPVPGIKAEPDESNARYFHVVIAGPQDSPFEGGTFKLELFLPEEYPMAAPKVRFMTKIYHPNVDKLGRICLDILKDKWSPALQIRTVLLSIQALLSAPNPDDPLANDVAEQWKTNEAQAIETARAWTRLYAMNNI

[17] = target: T3, Ubiquitin-conjugating enzyme E2 N; format: functional; remark: listed apart in the source
[18] = target: Female germline-specific tumor suppressor gld-1 (Caenorhabditis elegans, UniProt Q17339); assay: blockers of GLD-1/TGE RNA complex formation – biochemical, fluorescence polarization, C. elegans, dose response (AID 2802);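 also: fluorescence polarization of labeled TGE RNA bound by purified gld-1 protein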
Chain of Female germline-specific tumor suppressor gld-1 (Q17339 whole entry): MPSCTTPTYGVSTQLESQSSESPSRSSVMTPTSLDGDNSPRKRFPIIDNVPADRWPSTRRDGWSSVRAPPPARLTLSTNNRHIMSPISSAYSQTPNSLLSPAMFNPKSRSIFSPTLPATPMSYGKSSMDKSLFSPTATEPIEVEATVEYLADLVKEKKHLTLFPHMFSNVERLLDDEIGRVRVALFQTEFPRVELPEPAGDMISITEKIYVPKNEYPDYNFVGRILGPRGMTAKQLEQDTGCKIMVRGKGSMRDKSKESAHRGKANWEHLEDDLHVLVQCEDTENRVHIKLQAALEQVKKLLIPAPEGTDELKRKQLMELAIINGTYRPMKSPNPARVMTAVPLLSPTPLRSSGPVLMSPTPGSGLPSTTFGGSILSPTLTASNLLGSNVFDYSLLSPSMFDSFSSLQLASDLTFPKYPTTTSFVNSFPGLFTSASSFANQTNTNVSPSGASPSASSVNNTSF

[19] = system: Vero; assay: cells; format: functional; conditions: Chlorocebus sabaeus
[20] = target: T4, Bcl-2-related protein A1 (Mus musculus, UniProt Q07440); format: functional;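 also: confirmatory dose–response counterscreen on Bfl-1, used to check hits from a UBC13 polyubiquitin inhibitor campaign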
T4 sequence (Q07440 whole entry): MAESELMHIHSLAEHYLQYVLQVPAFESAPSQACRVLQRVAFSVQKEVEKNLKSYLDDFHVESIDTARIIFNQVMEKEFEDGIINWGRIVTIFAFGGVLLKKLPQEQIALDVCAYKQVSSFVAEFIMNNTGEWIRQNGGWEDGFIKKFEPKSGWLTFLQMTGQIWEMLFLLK

[21] = viability of HCT116 lacking mutant beta-catenin – cell-based, human colon tumor, dose response (AID 1045); format: functional;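 also: HCT116 colon tumor cells with beta catenin knocked out; cells exposed to compound for 60 hours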

SMILES: N#C/C(=C/c1ccc([N+](=O)[O-])o1)c1nc2ccccc2[nH]1
- EC50 [1]: 3.08 µM (active)

SMILES: Nc1nc2ccccc2n1S(=O)(=O)c1ccc([N+](=O)[O-])cc1
- IC50 [2]: > 20 µM (inactive)
- IC50 [3]: > 20 µM (inactive)
- IC50 [4]: > 5 µM (inactive)

SMILES: COc1ccc(C(=O)NCC(=O)OC2CCCCC2=O)cc1 (stereo unspecified)
- EC50 [5]: > 55.7 µM (not active)
- EC50 [6]: > 55.7 µM (not active)

SMILES: O=C1C2(Cl)C3(Cl)C4(Cl)C(Cl)(Cl)C5(Cl)C3(Cl)C1(Cl)C5(Cl)C24Cl (stereo unspecified) [KEPONE]
- CC50 [7]: 22.6 µM (active)
- AC50 [8]: 2.68 µM (active)
- CC50 [9]: 8.69 µM (active)

SMILES: CSCCC(NC(=O)c1ccccc1)C(=O)OCC(=O)Nc1sc2c(c1C#N)CCCC2 (stereo unspecified)
- IC50 [10]: 0.44 µM (active)

SMILES: COc1ccc(Cl)cc1NC(=O)c1cc(C2CC2)on1
- EC50 [11]: 0.00455 µM (active)

SMILES: Cc1cc(O)nc(-n2nc(C)cc2NC(=O)c2ccccc2Cl)n1
- EC50 [12]: > 49.7 µM (inactive)
- EC50 [13]: > 16.6 µM (active)

SMILES: CN1CC2=Cc3ccccc3OC23Oc2ccccc2C=C3C1
- EC50 [14]: 25 µM (active)
- IC50 [15]: > 75.4 µM (not active)
- IC50 [16]: 2.55 µM (active)
- IC50 [17]: 3.5 µM (active)
- IC50 [18]: > 59.6 µM (inactive)
- CC50 [19]: 18.9 µM (active)
- IC50 [20]: > 20 µM (inactive)
- EC50 [21]: 23 µM (active)
